Source: article PMC6609550, “Blockade of the forward Na^+/Ca^2+ exchanger suppresses the growth of glioblastoma cells through Ca^2+‐mediated cell death” (British Journal of Pharmacology, 2019)

How the values were obtained:
Type in all cases: cell-based, Human
[1] = tested on: reverse NCX; test: Whole-cell patch-clamp recording of reverse-mode NCX currents in U87 cells; conditions: reverse NCX current measured at +50 mV, mean ± SEM, n = 4, read-out: IC50, blocking reverse NCX (currents)
Experimental: Whole‐cell patch‐clamp recording was performed using a Multiclamp 700B amplifier (Molecular Devices, Foster City, CA, USA) at room temperature. Voltage protocols were provided and current recorded via a DigiData‐1550B interface (Molecular Devices) controlled by pClamp 10 Software (Molecular Devices, RRID:SCR_011323). […] Internal solution consisted of (in mM): 120 CsCl, 20 NaCl, 2 MgCl2, 13 CaCl2, 2 Na2ATP, 20 BAPTA, and 10 HEPES at a pH 7.2. […] Series resistance was compensated by 75–85%. Linear leak and residual capacitance currents were subtracted online using a P/4 protocol of the pClamp 10. For the recording of the membrane currents related to the NCX, cells were held at −50 mV and depolarized to +60 mV, and then a voltage ramp starting from +60 to −120 mV was applied for 1,000 ms before returning back to −50 mV. The reverse and forward NCX currents were measured at +50 and −110 mV holding potentials respectively (Molinaro et al., 2008; Rahman, Inman, Kiss, & Janssen, 2012; Song, Chen, & Yu, 2014). Data were filtered at 3 KHz and digitized at sampling rates of 20 KHz. For drug application, cells were perfused with a VC‐6 Six Channel Perfusion Valve Control Systems (Warner Instruments, Greenwich, CT, USA) connected to a gravity‐fed perfusion systems.
Data are expressed as mean ± SEM and analysed by Prism 7 software, La Jolla, CA (GraphPad Prism, RRID:SCR_002798). The data and statistical analysis comply with the recommendations of the British Journal of Pharmacology on experimental design and analysis in pharmacology. Concentrations of the NCX blockers (IC50) exerting half‐maximal inhibition of NCX currents were obtained by fitting the concentration–response with the equation: I/I0*100%=Bottom+Top−Bottom/1+10^((^Log^IC50−C)*n) , where I 0 and I are current amplitudes measured in control and in the presence of NCX blockers, C is the logarithm of concentration, and n is the Hill coefficient. The statistical difference between two independent groups was analysed by Student's parametric unpaired t test. And the original data of more than two groups were assessed by the parametric one‐way ANOVA followed by a Tukey's post hoc test. The data for cell viability and Western blot were usually normalized to the control group, and were thus analysed by the non‐parametric Kruskal–Wallis test followed by a Dunn's post hoc test. Differences were considered to be significant when P < .05. Post hoc tests were conducted when the F value achieved the necessary level (P < .05) and there was no significant variance inhomogeneity.
We characterized the membrane currents associated with NCX activity in glioblastoma cells using whole‐cell patch‐clamp recording. […] The NCX current in its reverse mode (Ca^2+ entry) was measured at +50, and the forward‐mode current (Ca^2+ exit) was measured at −110 mV. The Ni^2+ (10 mM) was employed to inhibit and identify the NCX currents in its either reverse or forward mode as previously reported (Maack, Ganesan, Sidor, & O'Rourke, 2005).

[2] = tested on: U251 cells; test: Cell viability assay (Cell Counting Kit-8), U251; conditions: for IC50: 72 hr, CCK-8, mean ± SEM
Experimental: Cell viability was determined by using a Cell Counting Kit‐8 (Dojindo, Japan). Briefly, cells were harvested from flasks and plated in 96‐well cell culture plates at 5 × 10^3 per well and cultured overnight. […] Control cells were treated with cell culture medium and measured at the same time point as treatment groups. CCK‐8 solution (10 μl) was added to each well of the 96‐well plates, and the cultures were incubated for 30 min at 37°C. Absorbance at 450 nm was measured using an automatic microplate reader (Molecular Devices, San Jose, CA, USA).
Figure 2 Effect of the Na^+/Ca^2+ exchanger (NCX) blockers on viability of human glioblastoma cell lines. (a, b) Viability of adult glioblastoma cell lines (U87 and U251) after exposure to NCX blockers bepridil, KB‐R7943, SEA0400, SN‐6, or YM244769 at 0–100 μM for 72 hr. n = 5 independent tests per group. (c) Viability of paediatric glioblastoma cell line SF188 after 72‐hr incubation with the same NCX blockers at 0–100 μM. n = 5 independent tests per group. (d) For U87, U251, and SF188 cell lines, concentration of the NCX blockers required to produce half maximal inhibition (IC50: μM, mean ± SEM) of cell viability.

[3] = tested on: [Ca^2+]i in U87 cells; test: Ca2+ imaging (Fluo-4 AM) of U87 cells; conditions: for Effect on [Ca2+]i level in Ca2+-free solution / Effect on intracellular Ca2+ pool and ER Ca2+ transporting: Ca2+‐free solution; for Effect on intracellular Ca2+ pool and ER Ca2+ transporting: followed by 5‐μM thapsigargin; for Effect on [Ca2+]i level: solution containing 2‐mM Ca2+, bepridil or KB‐R7943 25 or 50 μM, CB‐DMB 2 and 4 μM
Experimental: Cells were cultured in 96‐well plates at 8 × 10^3 per well and loaded with the cell membrane‐permeable Ca^2+ dye Fluo‐4 AM (5 μM) in 100‐μl HEPES‐buffered solution for 50 min. The solution contained (mM): 135 NaCl, 3 KCl, 2 CaCl2, 1 MgCl2, 10 glucose, and 10 HEPES, supplemented with 1% FBS at pH 7.4. To prepare the Ca^2+‐free solution, 2‐mM CaCl2 was replaced with 1‐mM EGTA in the HEPES‐buffered solution. The 96‐well plate containing the Fluo‐4 AM‐loaded cells was mounted in a Leica TCS SP8 confocal system (Leica Microsystems, Wetzlar, Germany). The confocal microscope armed with 488‐nm laser light was employed to excite the dynamic fluorescent signals in time and synchronously, while test regents were added to cells. To do Na^+ imaging, Fluo‐4 AM was replaced with the cell membrane‐permeable Na^+ dye Asante NaTrium Green‐2 AM (ANG‐2 AM) at 5 μM, which was excited by 514‐nm laser light. Visual inspection and fluorescent imaging were carried out at room temperature. The imaging data were analysed with the software https://leica-las-af-lite.software.informer.com/ 2.5 (Leica). The imaging traces shown are representative of at least three separate experiments; 12–18 cells were imaged in each experiment.

SMILES | IC50 [1] [µM] | Effect on growth (viability) of U251 cells ([2]; 25 μM, 48 hr) | IC50 ([2]; Homo sapiens, U-251) [µM] | Effect on [Ca2+]i level in Ca2+-free solution [3] | Effect on intracellular Ca2+ pool and ER Ca2+ transporting [3] | Effect on [Ca2+]i level [3] | IC50 [2] [µM]
CC(C)COCC(CN(Cc1ccccc1)c1ccccc1)N1CCCC1 (centres unmarked) [Bepridil, N‐benzyl‐N‐(3‐isobutoxy‐2‐pyrrolidin‐1‐yl‐propyl)aniline] | 15.6 ± 1.1 | markedly suppressed growth | 14.9 ± 1.1 | did not show [Ca^2+]i elevation or fluctuation | neither bepridil nor KB‐R7943 affect intracellular Ca^2+ pool and Ca^2+ transporting on the ER membrane | quick [Ca^2+]i increase and sustained [Ca^2+]i elevation | 
CS(=O)(=O)O.N=C(N)SCCc1ccc(OCc2ccc([N+](=O)[O-])cc2)cc1 [KB‐R7943, 2‐[4‐[(4‐nitrophenyl)methoxy]phenyl]ethyl ester carbamimidothioic acid methanesulfonate] | 14.3 ± 1.2 |  |  | did not show [Ca^2+]i elevation or fluctuation | neither bepridil nor KB‐R7943 affect intracellular Ca^2+ pool and Ca^2+ transporting on the ER membrane | a short [Ca^2+]i descent in the beginning and a slow [Ca^2+]i increases ensuing | 29.2 ± 1.1
